How the values were obtained:
[1] = system: H9c2 cardiomyocytes; test: real-time RT-PCR confirmation of microRNA expression during ER stress; format: cell-based, Rat; conditions: Tg 1 μM or Tm 1 μg/ml, 24 hours; for mir-7a expression, Real-time PCR (set I) / mir-18a expression, Real-time PCR (set I) / mir-20a expression, Real-time PCR (set I) / mir-24 expression, Real-time PCR (set I) / mir-25 expression, Real-time PCR (set I) / mir-93 expression, Real-time PCR (set I) / mir-98 expression, Real-time PCR (set I) / mir-103 expression, Real-time PCR (set I) / mir-106b expression, Real-time PCR (set I) / mir-107 expression, Real-time PCR (set I) / mir-133a expression, Real-time PCR (set I) / mir-133b expression, Real-time PCR (set I) / mir-206 expression, Real-time PCR (set I) / mir-322 expression, Real-time PCR (set I) / mir-351 expression, Real-time PCR (set I): untreated control = 1.000, set I; for mir-7a expression, Real-time PCR (set II) / mir-18a expression, Real-time PCR (set II) / mir-20a expression, Real-time PCR (set II) / mir-24 expression, Real-time PCR (set II) / mir-25 expression, Real-time PCR (set II) / mir-93 expression, Real-time PCR (set II) / mir-98 expression, Real-time PCR (set II) / mir-103 expression, Real-time PCR (set II) / mir-106b expression, Real-time PCR (set II) / mir-107 expression, Real-time PCR (set II) / mir-133a expression, Real-time PCR (set II) / mir-133b expression, Real-time PCR (set II) / mir-206 expression, Real-time PCR (set II) / mir-322 expression, Real-time PCR (set II) / mir-351 expression, Real-time PCR (set II): untreated control = 1.000, set II
Excerpt: Expression of muscle specific microRNAs; mir-206, mir-133a and mir-133b and several members of mir-17-92 oncogenic cluster were repressed during conditions of ER stress. Based on their differential expression profile during ER stress and their hitherto unexplored role in cardiovascular biology mir-7a, mir-351 and mir-322 were identified as primary microRNA targets in conditions of ER stress. In addition, the invention has been extended to the human ortholog, miR-125, of rat miR-351. Similarly, the invention extends to the human ortholog, miR-424, of rat miR-322. […], and hsa-miR-424 & rno-miR-322 are microRNAs having similar seed sequences in humans and rats respectively.
(§1) Control, Untreated; Tg, thapsigargin (1 μM) for 24 hours, Tm, tunicamycin (1 μg/ml) for 24 hours. mir-7a, mir-351 and mir-322 are shown in bold face.

[2] = system: H9c2 cells; test: RT-PCR for induction of Grp78/BiP; format: cell-based; conditions: 1 μM Tg, 1 μg/ml Tm for 24 hr, three independent experiments
Method: (§2) Expression profiling of microRNAs during the conditions of Endoplasmic Reticulum (ER) stress in cardiomyocytes was performed. ER stress was induced by treatment with either thapsigargin, an inhibitor of the Sacroplasmic/Endoplasmic Reticulum Ca2+ATPase (SERCA) pump or tunicamycin (an inhibitor of N-linked glycosylation). RNA was isolated from three independent experiments where H9c2 cells were treated with thapsigargin (Tg) or tunicamycin (Tm) for 24 hours. RNAs from Tg and Tm treated cells were checked for induction of key ER resident chaperone Grp78/BiP by RT-PCR. Grp78/BiP is a central regulator of ER homeostasis due to its multiple functional roles in protein folding, ER calcium binding, and controlling of the activation of transmembrane ER stress sensors. […] Total RNA was isolated from H9c2 cells treated with 1 μM Tg, 1 μg/ml Tm for 24 hr and the expression levels of the indicated genes were analysed by RT-PCR.

[3] = system: H9c2 cardiomyocytes; test: microarray analysis of microRNA expression during ER stress; format: cell-based, Rat; conditions: Tg 1 μM or Tm 1 μg/ml, 24 hours, untreated control = 1.000
Method: as §2
Next equal amounts of RNAs from each experiment were pooled and used for microarray analysis to minimize experimental variations. The experimental outline for the microarray analysis is illustrated in FIG. 2. The chips were spotted with 350 mature microRNAs of Rat as per Sanger miRBase database (Release 11.0). Each microRNA was spotted on the array nine times and for each RNA sample two chips were used. There were 16 sets of control probes on each array. There were greater than 10 positive controls (spike-in controls & 5S). There were greater than 10 negative controls (mismatch control). A 20-mer control RNA is spiked into each sample followed by labeling and hybridization. The control RNA had been computationally and experimentally verified not to cross-hybridize with the probes of any known microRNA transcript. The background-subtracted signals were used for statistical tests and clustering analysis.
as §1

## C/C=C(/C)C(=O)O[C@H]1C(C)=C2[C@H]([C@@H]1OC(=O)CCCCCCC)[C@@](C)(OC(C)=O)C[C@H](OC(=O)CCC)[C@@]1(O)[C@H]2OC(=O)[C@@]1(C)O [Tg, thapsigargin]
[1]
  mir-7a expression, Real-time PCR (set I): 1.540
  mir-18a expression, Real-time PCR (set I): 0.720
  mir-20a expression, Real-time PCR (set I): 0.930
  mir-24 expression, Real-time PCR (set I): 0.810
  mir-25 expression, Real-time PCR (set I): 0.790
  mir-93 expression, Real-time PCR (set I): 0.660
  mir-98 expression, Real-time PCR (set I): 1.470
  mir-103 expression, Real-time PCR (set I): 0.860
  mir-106b expression, Real-time PCR (set I): 0.820
  mir-107 expression, Real-time PCR (set I): 0.580
  mir-133a expression, Real-time PCR (set I): 0.720
  mir-133b expression, Real-time PCR (set I): 0.470
  mir-206 expression, Real-time PCR (set I): 0.540
  mir-322 expression, Real-time PCR (set I): 0.830
  mir-351 expression, Real-time PCR (set I): 0.210
  mir-7a expression, Real-time PCR (set II): 3.800
  mir-18a expression, Real-time PCR (set II): 0.700
  mir-20a expression, Real-time PCR (set II): 0.620
  mir-24 expression, Real-time PCR (set II): 0.870
  mir-25 expression, Real-time PCR (set II): 0.799
  mir-93 expression, Real-time PCR (set II): 0.530
  mir-98 expression, Real-time PCR (set II): 0.850
  mir-103 expression, Real-time PCR (set II): 0.590
  mir-106b expression, Real-time PCR (set II): 0.800
  mir-107 expression, Real-time PCR (set II): 0.800
  mir-133a expression, Real-time PCR (set II): 1.140
  mir-133b expression, Real-time PCR (set II): 0.680
  mir-206 expression, Real-time PCR (set II): 0.820
  mir-322 expression, Real-time PCR (set II): 0.690
  mir-351 expression, Real-time PCR (set II): 0.210
[2]
  induction of ER resident chaperone Grp78/BiP by RT-PCR: induction of Grp78/BiP in all three experiments
[3]
  mir-7a expression, Microarray Analysis: 1.341
  mir-18a expression, Microarray Analysis: 0.426
  mir-20a expression, Microarray Analysis: 0.770
  mir-24 expression, Microarray Analysis: 0.664
  mir-25 expression, Microarray Analysis: 0.633
  mir-93 expression, Microarray Analysis: 0.583
  mir-98 expression, Microarray Analysis: 3.822
  mir-103 expression, Microarray Analysis: 0.654
  mir-106b expression, Microarray Analysis: 0.638
  mir-107 expression, Microarray Analysis: 0.682
  mir-133a expression, Microarray Analysis: 0.595
  mir-133b expression, Microarray Analysis: 0.565
  mir-206 expression, Microarray Analysis: 0.683
  mir-322 expression, Microarray Analysis: 0.094
  mir-351 expression, Microarray Analysis: 0.141

## tunicamycin [Tm]
[1]
  mir-7a expression, Real-time PCR (set I): 1.140
  mir-18a expression, Real-time PCR (set I): 1.090
  mir-20a expression, Real-time PCR (set I): 1.340
  mir-24 expression, Real-time PCR (set I): 0.930
  mir-25 expression, Real-time PCR (set I): 0.906
  mir-93 expression, Real-time PCR (set I): 0.800
  mir-98 expression, Real-time PCR (set I): 1.480
  mir-103 expression, Real-time PCR (set I): 0.960
  mir-106b expression, Real-time PCR (set I): 1.060
  mir-107 expression, Real-time PCR (set I): 0.590
  mir-133a expression, Real-time PCR (set I): 0.750
  mir-133b expression, Real-time PCR (set I): 0.480
  mir-206 expression, Real-time PCR (set I): 0.570
  mir-322 expression, Real-time PCR (set I): 0.840
  mir-351 expression, Real-time PCR (set I): 0.290
  mir-7a expression, Real-time PCR (set II): 1.650
  mir-18a expression, Real-time PCR (set II): 0.640
  mir-20a expression, Real-time PCR (set II): 0.650
  mir-24 expression, Real-time PCR (set II): 0.760
  mir-25 expression, Real-time PCR (set II): 0.760
  mir-93 expression, Real-time PCR (set II): 0.550
  mir-98 expression, Real-time PCR (set II): 0.750
  mir-103 expression, Real-time PCR (set II): 0.500
  mir-106b expression, Real-time PCR (set II): 0.737
  mir-107 expression, Real-time PCR (set II): 0.630
  mir-133a expression, Real-time PCR (set II): 0.730
  mir-133b expression, Real-time PCR (set II): 0.510
  mir-206 expression, Real-time PCR (set II): 0.604
  mir-322 expression, Real-time PCR (set II): 0.610
  mir-351 expression, Real-time PCR (set II): 0.230
[2]
  induction of ER resident chaperone Grp78/BiP by RT-PCR: induction of Grp78/BiP in all three experiments
[3]
  mir-7a expression, Microarray Analysis: 2.458
  mir-18a expression, Microarray Analysis: 0.550
  mir-20a expression, Microarray Analysis: 0.791
  mir-24 expression, Microarray Analysis: 0.672
  mir-25 expression, Microarray Analysis: 0.771
  mir-93 expression, Microarray Analysis: 0.524
  mir-98 expression, Microarray Analysis: 4.921
  mir-103 expression, Microarray Analysis: 0.571
  mir-106b expression, Microarray Analysis: 0.672
  mir-107 expression, Microarray Analysis: 0.601
  mir-133a expression, Microarray Analysis: 0.690
  mir-133b expression, Microarray Analysis: 0.641
  mir-206 expression, Microarray Analysis: 0.607
  mir-322 expression, Microarray Analysis: 0.113
  mir-351 expression, Microarray Analysis: 0.179

From US20120040906A1, “PROTEIN TARGETS IN DISEASE” (NATIONAL UNIVERSITY OF IRELAND, GALWAY, priority 2009, published 2012)
